Data taken from patent US20250084063A1 (Incyte Corporation, priority 2023, published 2025).

Legend:
Type in all cases: cell-based
MRGPRX2 [1] = biological target: T1, MRGPRX2 (Homo sapiens, UniProt Q96LB1); assay: MRGPRX2 IP1 HTRF assay; set-up: host or cells: CHO-K1; conditions: CHO-K1 cells stably expressing human MRGPRX2; IP1 accumulation, agonist Cortistatin 14 1 μM
T1 sequence (Q96LB1 1-330): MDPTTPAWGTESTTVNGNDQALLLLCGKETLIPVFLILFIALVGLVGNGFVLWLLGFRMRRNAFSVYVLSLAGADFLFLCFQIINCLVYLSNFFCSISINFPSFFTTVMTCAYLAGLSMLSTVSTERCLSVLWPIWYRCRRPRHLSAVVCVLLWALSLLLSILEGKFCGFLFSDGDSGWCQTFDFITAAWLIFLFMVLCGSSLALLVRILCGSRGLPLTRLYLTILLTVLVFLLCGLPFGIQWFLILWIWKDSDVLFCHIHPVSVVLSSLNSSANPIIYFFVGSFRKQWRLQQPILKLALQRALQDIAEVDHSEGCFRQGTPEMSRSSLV

MRGPRX2 [2] = biological target: T1, MRGPRX2; assay: MRGPRX2 β-Arrestin assay; set-up: host or cells: PathHunter CHO-K1; conditions: PathHunter CHO-K1 MRGPRX2 β-Arrestin cell line; agonist Cortistatin 14 0.25 μM
Excerpt: Example C: MRGPRX2 β-Arrestin Assay
This assay measures compound inhibition of β-Arrestin recruitment, which is part of the G protein-independent pathway that results from the ligand-activated GPCR phosphorylation by specific GPCR kinases. The PathHunter CHO-K1 MRPGRX2 B-Arrestin Cell line stably expressing ProLink tagged MRGPRX2 and Enzyme Acceptor Tagged B-Arrestin was purchased from Eurofins DiscoverX, (Fremont, CA).
The cells were maintained in culture medium from the Europhins DiscoverX Cell Culture Kit-107 which includes FBS, hygromycin B and G418. For the assay, the cells were harvested and were resuspended with Cell Plating Reagent 2 (Eurofins DiscoverX). Cells were added 10000 cells in 25 µL/well to a 384-well black cell culture plate (Greiner VWR, Radnor, PA) which contained 125 nL/well of compound at a selected serially diluted concentration range or DMSO. The plate was incubated at 37° C. with 5% CO2 for 1 h. 2 μL/well of agonist Cortistatin 14 was diluted in Protein Dilution Buffer, (Eurofins DiscoverX) for a final concentration of 0.25 μM, was added and the plate was incubated at 37° C. with 5% CO2 for 90 min. 14 μL/well of Detection Reagent Mix (PathHunter Detection Kit, Eurofins DiscoverX) was added to the plates and further incubated for 1 h in the dark. Plates were read on the PHERAstar microplate reader (BMG Labtech Cary, NC) measuring luminescence 0.1 to 1 second per well. Data was normalized using DMSO only wells and wells with high concentration of reference antagonist as controls. Compound IC50 curves were globally fitted with 3- or 4-parameter Hill equation in a Genedata Screener (Genedata Basel, Switzerland).

MRGPRX2 [3] = biological target: T1, MRGPRX2; assay: MRGPRX2 FLIPR calcium mobilization assay; set-up: host or cells: CHO-K1; conditions: CHO-K1 cells stably expressing human MRGPRX2; Ca2+ release, agonist Cortistatin-14 at EC80
Outline: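 CHO-K1 cells stably expressing human MRGPRX2, loaded with Calcium 6 dye, pre-incubated 30 min at room temperature with test compound in HBSS/20 mM HEPES pH 7.4. Then challenged with Cortistatin-14 at EC80; baseline-adjusted peak fluorescence over 110 s fitted to a Hill equation for IC50.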

Structure (SMILES)	IC50 (MRGPRX2 [1]) [nM]	IC50 (MRGPRX2 [2]) [nM]	IC50 (MRGPRX2 [3]) [nM]
CC(C)NC(=O)N1CC(CNc2cc(C(F)(F)F)nc3ccc(Cl)cc23)(n2cc(F)cn2)C1 [Example 21, 3-(((6-Chloro-2-(trifluoromethyl)quinolin-4-yl)amino)methyl)-3-(4-fluoro-1H-pyrazol-1-yl)-N-isopropylazetidine-1-carboxamide]	0.1 to 100	0.1 to 100	0.1 to 100
[2H]C([2H])([2H])NC(=O)N1CC(CNc2cc(C(F)(F)F)nc3ccc(Cl)cc23)(n2cc(Cl)cn2)C1 [Example 30, 3-(4-Chloro-1H-pyrazol-1-yl)-3-(((6-chloro-2-(trifluoromethyl)quinolin-4-yl)amino)methyl)-N-(methyl-d3)azetidine-1-carboxamide]	0.1 to 100	0.1 to 100	0.1 to 100
CNC(=O)N1CC(CNc2cc(C(F)(F)F)nc3ccc(Cl)cc23)(c2ccc3cnn(C)c3c2)C1 [Example 83]	100 to 1000	100 to 1000	0.1 to 100
FC(F)(F)c1cc(NCC2(c3ccccc3)CCOCC2)c2cc(Cl)ccc2n1 [Example 17, 6-Chloro-N-((4-phenyltetrahydro-2H-pyran-4-yl)methyl)-2-(trifluoromethyl)quinolin-4-amine]	0.1 to 100	0.1 to 100	0.1 to 100
Fc1ccc(C2(CNc3cc(C(F)(F)F)nc4ccc(Cl)cc34)COCCO2)cc1 (stereo not drawn) [Example 53, 6-Chloro-N-((2-(4-fluorophenyl)-1,4-dioxan-2-yl)methyl)-2-(trifluoromethyl)quinolin-4-amine]	0.1 to 100	0.1 to 100	0.1 to 100
NC(=O)N1CC(CNc2cc(C(F)(F)F)nc3ccc(F)cc23)(c2ccc(F)cc2)C1 [Example 25, 3-(((6-Fluoro-2-(trifluoromethyl)quinolin-4-yl)amino)methyl)-3-(4-fluorophenyl)azetidine-1-carboxamide]	0.1 to 100	0.1 to 100	0.1 to 100
NS(=O)(=O)N1CC(CNc2cc(C(F)(F)F)nc3ccc(Cl)cc23)(c2ccccc2)C1 [Example 38, 3-(((6-Chloro-2-(trifluoromethyl)quinolin-4-yl)amino)methyl)-3-phenylazetidine-1-sulfonamide]	0.1 to 100	0.1 to 100	0.1 to 100
O=C(NC1CC(F)(F)C1)N1CC(CNc2cc(C(F)(F)F)nc3ccc(Cl)cc23)(c2ccc(F)cn2)C1 [Example 19, 3-(((6-Chloro-2-(trifluoromethyl)quinolin-4-yl)amino)methyl)-N-(3,3-difluorocyclobutyl)-3-(5-fluoropyridin-2-yl)azetidine-1-carboxamide]	0.1 to 100	0.1 to 100	0.1 to 100
NS(=O)(=O)N1CC(CNc2cc(C(F)(F)F)nc3ccc(Cl)cc23)(c2ncccc2F)C1 [Example 43, 3-(((6-Chloro-2-(trifluoromethyl)quinolin-4-yl)amino)methyl)-3-(3-fluoropyridin-2-yl)azetidine-1-sulfonamide]	0.1 to 100	0.1 to 100	0.1 to 100
CNC(=O)N1CC(CNc2cc(C(F)(F)F)nc3ccc(Cl)cc23)(n2cc(F)cn2)C1 [Example 44, 3-(((6-Chloro-2-(trifluoromethyl)quinolin-4-yl)amino)methyl)-3-(4-fluoro-1H-pyrazol-1-yl)-N-methylazetidine-1-carboxamide]	0.1 to 100	0.1 to 100	0.1 to 100
Cn1ncc2cc(C3(CNc4cc(C(F)(F)F)nc5ccc(Cl)cc45)CN(S(N)(=O)=O)C3)ccc21 [Example 82, 3-(((6-Chloro-2-(trifluoromethyl)quinolin-4-yl)amino)methyl)-3-(1-methyl-1H-indazol-5-yl)azetidine-1-sulfonamide]	100 to 1000	0.1 to 100	0.1 to 100
NS(=O)(=O)N1CC(CNc2cc(C(F)(F)C(F)(F)F)nc3ccc(Cl)cc23)(c2ccc(F)cc2)C1 [Example 4, 3-(((6-Chloro-2-(perfluoroethyl)quinolin-4-yl)amino)methyl)-3-(4-fluorophenyl)azetidine-1-sulfonamide]	0.1 to 100	0.1 to 100	0.1 to 100
CNC(=O)N1CCC(CNc2cc(C(F)(F)F)nc3ccc(Cl)cc23)(c2ccccc2)C1 (stereo not drawn) [Example 14, 3-(((6-Chloro-2-(trifluoromethyl)quinolin-4-yl)amino)methyl)-N-methyl-3-phenylpyrrolidine-1-carboxamide]	0.1 to 100	0.1 to 100	0.1 to 100
[2H]C([2H])([2H])NC(=O)N1CC(CNc2cc(C(F)(F)F)nc3ccc(Cl)cc23)(n2ccc(F)n2)C1 [Example 109, 3-(((6-Chloro-2-(trifluoromethyl)quinolin-4-yl)amino)methyl)-3-(3-fluoro-1H-pyrazol-1-yl)-N-(methyl-d3)azetidine-1-carboxamide]	0.1 to 100	0.1 to 100	0.1 to 100
NC(=O)N1CC(CNc2cc(C(F)(F)F)nc3ccc(Cl)cc23)(n2cc(Br)cn2)C1 [Example 41, 3-(4-Bromo-1H-pyrazol-1-yl)-3-(((6-chloro-2-(trifluoromethyl)quinolin-4-yl)amino)methyl)azetidine-1-carboxamide]	0.1 to 100	0.1 to 100	0.1 to 100
O=C(NC1CCC1)N1CC(CNc2cc(C(F)(F)F)nc3ccc(Cl)cc23)(n2cc(F)cn2)C1 [Example 107, 3-(((6-Chloro-2-(trifluoromethyl)quinolin-4-yl)amino)methyl)-N-cyclobutyl-3-(4-fluoro-1H-pyrazol-1-yl)azetidine-1-carboxamide]	0.1 to 100	0.1 to 100	0.1 to 100
O=C1CCC(CNc2cc(C(F)(F)F)nc3ccc(Cl)cc23)(c2ccccc2)N1 (stereo not drawn) [Example 45, 5-(((6-Chloro-2-(trifluoromethyl)quinolin-4-yl)amino)methyl)-5-phenylpyrrolidin-2-one]	0.1 to 100	0.1 to 100	0.1 to 100
NS(=O)(=O)N1CC(CNc2cc(C(F)(F)F)nc3ccc(F)cc23)(n2cc(F)cn2)C1 [Example 10, 3-(4-Fluoro-1H-pyrazol-1-yl)-3-(((6-fluoro-2-(trifluoromethyl)quinolin-4-yl)amino)methyl)azetidine-1-sulfonamide]	0.1 to 100	0.1 to 100	0.1 to 100
Nc1ccc(N2CCC(CNc3cc(C(F)(F)F)nc4ccc(Cl)cc34)(c3ccccc3)CC2)nn1 [Example 78, N-((1-(6-Aminopyridazin-3-yl)-4-phenylpiperidin-4-yl)methyl)-6-chloro-2-(trifluoromethyl)quinolin-4-amine]	0.1 to 100	0.1 to 100	0.1 to 100
[2H]C([2H])([2H])NC(=O)N1CC(CNc2cc(C(F)(F)F)nc3ccc(Cl)cc23)(n2cc(F)cn2)C1 [Example 26, 3-(((6-Chloro-2-(trifluoromethyl)quinolin-4-yl)amino)methyl)-3-(4-fluoro-1H-pyrazol-1-yl)-N-(methyl-d3)azetidine-1-carboxamide]	0.1 to 100	0.1 to 100	0.1 to 100
NS(=O)(=O)N1CC(CNc2cc(C(F)F)nc3ccc(Cl)cc23)(c2ccc(F)cc2)C1 [Example 5, 3-(((6-Chloro-2-(difluoromethyl)quinolin-4-yl)amino)methyl)-3-(4-fluorophenyl)azetidine-1-sulfonamide]	0.1 to 100	0.1 to 100	0.1 to 100
O=C(NC1CC1)N1CC(CNc2cc(C(F)(F)F)nc3ccc(Cl)cc23)(n2cc(F)cn2)C1 [Example 27, 3-(((6-Chloro-2-(trifluoromethyl)quinolin-4-yl)amino)methyl)-N-cyclopropyl-3-(4-fluoro-1H-pyrazol-1-yl)azetidine-1-carboxamide]	0.1 to 100	0.1 to 100	0.1 to 100
NC(=O)N1CC(CNc2cc(C(F)(F)F)nc3ccc(Br)cc23)(c2ccc(F)cn2)C1 [Example 6, 3-(((6-Bromo-2-(trifluoromethyl)quinolin-4-yl)amino)methyl)-3-(5-fluoropyridin-2-yl)azetidine-1-carboxamide]	0.1 to 100	0.1 to 100	0.1 to 100
